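At the GI50, growth is halved. At the TGI there is no net growth.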
Experiments:
Assay in all cases: NCI tumour cell line growth inhibition, 384-well format
786-0 renal = test system: 786-0 renal
A498 renal = test system: A498 renal
ACHN renal = test system: ACHN renal
CAKI-1 renal = test system: CAKI-1 renal
CCRF-CEM leukemia = test system: CCRF-CEM leukemia
DU-145 prostate = test system: DU-145 prostate
EKVX NSCLC = test system: EKVX NSCLC
HCC-2998 colon = test system: HCC-2998 colon
HCT-116 colon = test system: HCT-116 colon
HCT-15 colon = test system: HCT-15 colon
HL-60(TB) leukemia = test system: HL-60(TB) leukemia
HOP-62 NSCLC = test system: HOP-62 NSCLC
HOP-92 NSCLC = test system: HOP-92 NSCLC
HS 578T breast = test system: HS 578T breast
IGROV1 ovarian = test system: IGROV1 ovarian
KM12 colon = test system: KM12 colon
MALME-3M melanoma = test system: MALME-3M melanoma
MCF7 breast = test system: MCF7 breast
MDA-MB-231 breast = test system: MDA-MB-231 breast
MDA-MB-435 melanoma = test system: MDA-MB-435 melanoma
MDA-MB-468 breast = test system: MDA-MB-468 breast
MOLT-4 leukemia = test system: MOLT-4 leukemia
NCI-H226 lung = test system: NCI-H226 lung
NCI-H23 lung = test system: NCI-H23 lung
NCI-H460 NSCLC = test system: NCI-H460 NSCLC
NCI-H522 lung = test system: NCI-H522 lung
NCI/ADR-RES ovarian = test system: NCI/ADR-RES ovarian
OVCAR-3 ovarian = test system: OVCAR-3 ovarian
OVCAR-4 ovarian = test system: OVCAR-4 ovarian
OVCAR-5 ovarian = test system: OVCAR-5 ovarian
OVCAR-8 ovarian = test system: OVCAR-8 ovarian
PC-3 prostate = test system: PC-3 prostate
RXF 393 renal = test system: RXF 393 renal
SF-268 CNS = test system: SF-268 CNS
SF-539 CNS = test system: SF-539 CNS
SK-MEL-5 melanoma = test system: SK-MEL-5 melanoma
SK-OV-3 ovarian = test system: SK-OV-3 ovarian
SN12C renal = test system: SN12C renal
SNB-19 CNS = test system: SNB-19 CNS
SNB-75 CNS = test system: SNB-75 CNS
SW-620 colon = test system: SW-620 colon
T-47D breast = test system: T-47D breast
TK-10 renal = test system: TK-10 renal

Compound `CN1CCN(c2ccc(OC(F)(F)F)c(Nc3ncc4c(n3)-c3c(c(C(N)=O)nn3CCO)CC4)c2)CC1` has a GI50 (786-0 renal) of 52.7 nM, a TGI (786-0 renal) of 10.3 µM and a GI50 (A498 renal) of 87.1 nM. For the same compound, the TGI (A498 renal) was 17.3 µM, the GI50 (ACHN renal) was 554 nM and the TGI (ACHN renal) was 19.7 µM. It also gave a GI50 (CAKI-1 renal) of 478 nM, a TGI (CAKI-1 renal) of 19.4 µM and a GI50 (CCRF-CEM leukemia) of less than 10 nM. For the same compound, the TGI (CCRF-CEM leukemia) was less than 10 nM, the GI50 (DU-145 prostate) was 26.4 nM and the TGI (DU-145 prostate) was 104 nM. It also gave a GI50 (EKVX NSCLC) of 93.6 nM, a TGI (EKVX NSCLC) of 19.4 µM and a GI50 (HCC-2998 colon) of 18.4 nM. It also gave a TGI (HCC-2998 colon) of 61.6 nM, a GI50 (HCT-116 colon) of 19.8 nM and a TGI (HCT-116 colon) of 13 µM. It also gave a GI50 (HCT-15 colon) of 56.1 nM, a TGI (HCT-15 colon) of 347 nM and a GI50 (HL-60(TB) leukemia) of less than 10 nM. It also gave a TGI (HL-60(TB) leukemia) of less than 10 nM, a GI50 (HOP-62 NSCLC) of 25.2 nM and a TGI (HOP-62 NSCLC) of 297 nM. The GI50 (HOP-92 NSCLC) was 73.9 nM, the TGI (HOP-92 NSCLC) was 6.66 µM and the GI50 (HS 578T breast) was 20.2 nM. It also gave a TGI (HS 578T breast) of 54.1 nM, a GI50 (IGROV1 ovarian) of 40.6 nM and a TGI (IGROV1 ovarian) of 15.9 µM. For the same compound, the GI50 (KM12 colon) was 11.4 nM, the TGI (KM12 colon) was 95.4 nM and the GI50 (MALME-3M melanoma) was 68.5 nM. For the same compound, the TGI (MALME-3M melanoma) was 16.7 µM, the GI50 (MCF7 breast) was 18.3 nM and the TGI (MCF7 breast) was 12.5 µM. The GI50 (MDA-MB-231 breast) was 38.3 nM, the TGI (MDA-MB-231 breast) was 58.1 µM and the GI50 (MDA-MB-435 melanoma) was 10.8 nM. The TGI (MDA-MB-435 melanoma) was 28.8 nM, the GI50 (MDA-MB-468 breast) was less than 10 nM and the TGI (MDA-MB-468 breast) was less than 10 nM. It also gave a GI50 (MOLT-4 leukemia) of 10 nM, a TGI (MOLT-4 leukemia) of 22.1 nM and a GI50 (NCI-H226 lung) of 14.8 µM. It also gave a TGI (NCI-H226 lung) of 56.3 µM, a GI50 (NCI-H23 lung) of 13.9 nM and a TGI (NCI-H23 lung) of 37.7 nM. It also gave a GI50 (NCI-H460 NSCLC) of 17.8 nM, a TGI (NCI-H460 NSCLC) of 37.7 nM and a GI50 (NCI-H522 lung) of less than 10 nM. The TGI (NCI-H522 lung) was 26.6 nM, the GI50 (NCI/ADR-RES ovarian) was 325 nM and the TGI (NCI/ADR-RES ovarian) was 1330 nM. The GI50 (OVCAR-3 ovarian) was less than 10 nM, the TGI (OVCAR-3 ovarian) was 37.2 nM and the GI50 (OVCAR-4 ovarian) was 6.1 µM. The TGI (OVCAR-4 ovarian) was 27.1 µM, the GI50 (OVCAR-5 ovarian) was 30.8 nM and the TGI (OVCAR-5 ovarian) was greater than 100 µM. The GI50 (OVCAR-8 ovarian) was 18.3 nM, the TGI (OVCAR-8 ovarian) was 37.6 nM and the GI50 (PC-3 prostate) was 43.8 nM. For the same compound, the TGI (PC-3 prostate) was 35.2 µM, the GI50 (RXF 393 renal) was 15.1 nM and the TGI (RXF 393 renal) was 43.9 nM. It also gave a GI50 (SF-268 CNS) of less than 10 nM, a TGI (SF-268 CNS) of 12 nM and a GI50 (SF-539 CNS) of 30.8 nM. For the same compound, the TGI (SF-539 CNS) was 263 nM, the GI50 (SK-MEL-5 melanoma) was 11.5 nM and the TGI (SK-MEL-5 melanoma) was 121 nM. For the same compound, the GI50 (SK-OV-3 ovarian) was 37.6 nM, the TGI (SK-OV-3 ovarian) was greater than 100 µM and the GI50 (SN12C renal) was 546 nM. The TGI (SN12C renal) was 15.1 µM, the GI50 (SNB-19 CNS) was 39.2 nM and the TGI (SNB-19 CNS) was greater than 100 µM. For the same compound, the GI50 (SNB-75 CNS) was 64 nM, the TGI (SNB-75 CNS) was 4.69 µM and the GI50 (SW-620 colon) was 13.6 nM. For the same compound, the TGI (SW-620 colon) was 145 nM, the GI50 (T-47D breast) was 184 nM and the TGI (T-47D breast) was 8.33 µM. The GI50 (TK-10 renal) was 17.3 µM and the TGI (TK-10 renal) was greater than 100 µM.
